# Reference: patent publication US9730944B2, “Antiviral activity of novel bicyclic heterocycles” (priority 2010, dated 2017)
# Where two headings read alike, the source gives them in different places.
# How the values were obtained:
# poliovirus (PV type 1) = experiment: microbe, parasite or virus in culture; format: cell-based; conditions: Enterovirus C, read-out: PV-1 EC50
# HIV-1 strain IIIB = experiment: Inhibition of replication of HIV-1 (IIIB strain) in MT-4 cells, MTT assay; format: cell-based; conditions: Human immunodeficiency virus 1, IIIB, MT4, 120 h, read-out: EC50 (μM) HIV-1 (IIIB)
# in vitro [1] = conditions: human
# poliovirus (PV type 3) = experiment: microbe, parasite or virus in culture; format: cell-based; conditions: Enterovirus C, read-out: PV-3 EC50
# HIV-2 strain (ROD) = experiment: Inhibition of replication of HIV-2 (ROD strain) in MT-4 cells, MTT assay; format: cell-based; conditions: Human immunodeficiency virus 2, MT4, 120 h, read-out: EC50 (μM) HIV-2 (ROD)
# in vitro [2] = conditions: African green monkey, PV CC50
# poliovirus (PV type 2) = experiment: microbe, parasite or virus in culture; format: cell-based; conditions: Enterovirus C, read-out: PV-2 EC50
# in vitro [3] = conditions: human, PV CC50
# [4] = MT-4 cells, MTT assay, five days after infection, 50% protection from cytopathic effect
Compound,EC50 (poliovirus (PV type 1); HeLa),EC50 (poliovirus (PV type 1); Vero),EC50 (HIV-1 strain IIIB; [4]),CC50 (in vitro [1]),EC50 (poliovirus (PV type 3); HeLa),EC50 (poliovirus (PV type 3); Vero),EC50 (HIV-2 strain (ROD); [4]),CC50 (in vitro [2]),EC50 (poliovirus (PV type 2); HeLa),EC50 (poliovirus (PV type 2); Vero),CC50 (in vitro [3]),EC50 (HIV-1 strain IIIB),EC50 (HIV-2 strain (ROD))
"Nc1nc(N2CCN(C(=O)COc3ccc(Cl)cc3Cl)CC2)c2nc(CCc3ccc(F)cc3)sc2n1 [Example 54, 1-(4-(5-amino-2-(4-fluorophenethyl)thiazolo[5,4-d]pyrimidin-7-yl)piperazin-1-yl)-2-(2,4-dichlorophenoxy)ethanone]",> 50 µg/mL,> 50 µg/mL,> 157 µM,157 µM,≥ 50 µg/mL,> 50 µg/mL,> 157 µM,138 µg/mL,≥ 50 µg/mL,≥ 50 µg/mL,> 50 µg/mL,–,–
"Cc1nc(N2CCN(C(=O)COc3ccc(Cl)cc3)CC2)c2nc(Cc3ccc(F)cc3)oc2n1 [Example 171, 2-(4-chlorophenoxy)-1-(4-(2-(4-fluorobenzyl)-5-methyloxazolo[5,4-d]pyrimidin-7-yl)piperazin-1-yl)ethanone]",> 50 µg/mL,> 50 µg/mL,> 29.6 µM,33 µM,> 50 µg/mL,> 50 µg/mL,> 33 µM,118 µg/mL,≥ 50 µg/mL,0.07 µg/mL,46.1 µg/mL,–,–
"Cc1nc(N2CCN(C(=O)COc3ccc(Cl)cc3)CC2)c2nc(-c3ccc(F)cc3)oc2n1 [Example 168, 2-(4-chlorophenoxy)-1-(4-(2-(4-fluorophenyl)-5-methyl-oxazolo[5,4-d]pyrimidin-7-yl)piperazin-1-yl)ethanone]",> 50 µg/mL,> 50 µg/mL,> 50 µM,> 50 µM,> 50 µg/mL,> 50 µg/mL,> 50 µM,83.3 µg/mL,≥ 50 µg/mL,≥ 50 µg/mL,> 50 µg/mL,–,–
"Nc1nc(N2CCN(C(=O)COc3ccc(Cl)cc3)CC2)c2nc(C3CC3)oc2n1 [Example 185, 5-amino-2-cyclopropyl-7-[4-(4-chlorophenoxyacetyl)piperazin-1-yl]-oxazolo[5,4-d]pyrimidine]",0.4 µg/mL,2.17 µg/mL,–,–,> 50 µg/mL,> 50 µg/mL,–,97.7 µg/mL,≥ 50 µg/mL,5.48 µg/mL,> 50 µg/mL,–,–
"Nc1nc(N2CCN(C(=O)COc3ccc(Cl)cc3)CC2)c2nc(CCc3ccc(F)cc3)oc2n1 [Example 172, 1-(4-(5-amino-2-(4-fluorophenethyl)oxazolo[5,4-d]pyrimidin-7-yl)piperazin-1-yl)-2-(4-chlorophenoxy)ethanone]",32 µg/mL,1.16 µg/mL,–,32 µM,> 50 µg/mL,4.36 µg/mL,–,76.2 µg/mL,15.6 µg/mL,1.11 µg/mL,> 50 µg/mL,1.82 µM,≥ 32 µM
"Cc1nc(N2CCN(C(=O)COc3ccc(Cl)cc3)CC2)c2nc(-c3ccc(F)cc3)sc2n1 [Example 47, 2-(4-chlorophenoxy)-1-(4-(2-(4-fluorophenyl)-5-methylthiazolo[5,4-d]pyrimidin-7-yl)piperazin-1-yl)ethanone]",> 50 µg/mL,0.64 µg/mL,> 50 µM,> 50 µM,> 50 µg/mL,> 50 µg/mL,> 50 µM,> 150 µg/mL,≥ 50 µg/mL,0.35 µg/mL,> 50 µg/mL,–,–
"CCOC(=O)c1nc(N2CCN(C(=O)COc3ccc(Cl)cc3)CC2)c2cc(-c3ccc(F)cc3)sc2n1 [Example 353, ethyl 4-(4-(2-(4-chlorophenoxy)acetyl)piperazin-1-yl)-6-(4-fluorophenyl)thieno[2,3-d]pyrimidine-2-carboxylate]",> 50 µg/mL,> 50 µg/mL,> 68.5 µM,68.5 µM,> 50 µg/mL,> 50 µg/mL,> 68.5 µM,> 150 µg/mL,≥ 50 µg/mL,≥ 50 µg/mL,41.3 µg/mL,–,–
"NC(=O)c1nc(N2CCN(C(=O)COc3ccc(Cl)cc3)CC2)c2cc(-c3ccc(F)cc3)sc2n1 [Example 355, 4-(4-(2-(4-chlorophenoxy)acetyl)piperazin-1-yl)-6-(4-fluorophenyl)thieno[2,3-d]pyrimidine-2-carboxamide]",> 50 µg/mL,> 50 µg/mL,> 150 µM,150 µM,> 50 µg/mL,> 50 µg/mL,> 150 µM,117 µg/mL,≥ 50 µg/mL,≥ 50 µg/mL,> 50 µg/mL,–,–
"O=C(O)c1nc(N2CCN(C(=O)COc3ccc(Cl)cc3)CC2)c2cc(-c3ccc(F)cc3)sc2n1 [Example 357, 4-(4-(2-(4-chlorophenoxy)acetyl)piperazin-1-yl)-6-(4-fluorophenyl)thieno[2,3-d]pyrimidine-2-carboxylic acid]",> 50 µg/mL,> 50 µg/mL,157 µM,> 237 µM,> 50 µg/mL,> 50 µg/mL,> 237 µM,61.4 µg/mL,≥ 50 µg/mL,> 50 µg/mL,> 50 µg/mL,–,–
"Cc1cccc(NC(=O)N2CCN(c3nc(C(N)=O)nc4sc(-c5ccc(F)cc5)cc34)CC2)c1 [Example 362, 6-(4-fluorophenyl)-4-(4-(m-tolylcarbamoyl)piperazin-1-yl)thieno[2,3-d]pyrimidine-2-carboxamide]",> 50 µg/mL,> 50 µg/mL,–,255 µM,> 50 µg/mL,> 50 µg/mL,–,128 µg/mL,≥ 50 µg/mL,> 50 µg/mL,> 50 µg/mL,≥ 255 µM,≥ 255 µM
CC(C)S(=O)(=O)n1c(N)nc2ccc(/C(=N/O)c3ccccc3)cc21 [Enviroxime],0.13 µg/mL,0.11 µg/mL,–,–,0.12 µg/mL,1.03 µg/mL,–,> 150 µg/mL,0.041 µg/mL,0.04 µg/mL,21.2 µg/mL,–,–
"COCCN1CCN(c2nc(N)nc3oc(-c4ccc(F)cc4)nc23)CC1 [Example 192, 5-amino-2-(4-fluorophenyl)-7-[4-(2-methoxyethyl)-piperazin-1-yl]-oxazolo[5,4-d]pyrimidine]",> 50 µg/mL,> 50 µg/mL,–,–,> 50 µg/mL,> 50 µg/mL,–,100 µg/mL,> 50 µg/mL,≥ 50 µg/mL,> 50 µg/mL,–,–
"CCCCc1nc(N2CCN(C(=O)COc3ccc(Cl)cc3)CC2)c2cc(-c3ccc(F)cc3)sc2n1 [Example 313, 1-(4-(2-butyl-6-(4-fluorophenyl)thieno[2,3-d]pyrimidin-4-yl)piperazin-1-yl)-2-(4-chlorophenoxy)ethanone]",> 50 µg/mL,> 50 µg/mL,–,–,> 50 µg/mL,> 50 µg/mL,–,> 150 µg/mL,≥ 50 µg/mL,≥ 50 µg/mL,> 50 µg/mL,–,–
C[C@@]1(O)[C@H](O)[C@@H](CO)O[C@H]1n1ccc(N)nc1=O [2′-C-methylcytidine],3.74 µg/mL,3.58 µg/mL,–,–,11.4 µg/mL,15.3 µg/mL,–,> 150 µg/mL,7.27 µg/mL,4.6 µg/mL,> 50 µg/mL,–,–
"CCCCCc1nc2c(N3CCN(C(=O)COc4ccc(Cl)cc4)CC3)nc(N)nc2o1 [Example 188, 5-amino-7-[4-(4-chlorophenoxyacetyl)piperazin-1-yl]-2-pentyloxazolo[5,4-d]pyrimidine]",0.38 µg/mL,0.14 µg/mL,–,–,0.48 µg/mL,0.32 µg/mL,–,103 µg/mL,0.36 µg/mL,0.11 µg/mL,> 50 µg/mL,–,–
"O=C(COc1ccc(Cl)cc1)N1CCN(c2ncnc3sc(-c4ccc(F)cc4)cc23)CC1 [Example 312, 2-(4-chlorophenoxy)-1-(4-(6-(4-fluorophenyl)thieno[2,3-d]pyrimidin-4-yl)piperazin-1-yl)ethanone]",3.77 µg/mL,1.12 µg/mL,–,–,> 1.85 µg/mL,2.05 µg/mL,–,116 µg/mL,1.28 µg/mL,0.68 µg/mL,> 50 µg/mL,–,–
"CC(C)CN1CCN(c2nc(N)nc3oc(-c4ccc(F)cc4)nc23)CC1 [Example 190, 5-amino-2-(4-fluorophenyl)-7-(4-isobutylpiperazin-1-yl)-oxazolo[5,4-d]pyrimidine]",1.15 µg/mL,1.08 µg/mL,–,–,1.13 µg/mL,2.79 µg/mL,–,130 µg/mL,1.17 µg/mL,1.02 µg/mL,32.3 µg/mL,–,–
"CC(=O)N1CCN(c2nc(N)nc3oc(-c4ccc(F)cc4)nc23)CC1 [Example 191, 5-amino-2-(4-fluorophenyl)-7-(4-acetylpiperazin-1-yl)-oxazolo[5,4-d]pyrimidine]",28.6 µg/mL,27.5 µg/mL,–,–,> 50 µg/mL,> 50 µg/mL,–,112 µg/mL,≥ 50 µg/mL,21.6 µg/mL,> 50 µg/mL,–,–
"COc1ccc(OCC(=O)N2CCN(c3ncnc4sc(CCc5ccc(F)cc5)nc34)CC2)cc1 [Example 302, 1-(4-(2-(4-fluorophenethyl)thiazolo[5,4-d]pyrimidin-7-yl)piperazin-1-yl)-2-(4-methoxyphenoxy)ethanone]",< 0.023 µg/mL,< 0.023 µg/mL,–,–,< 0.023 µg/mL,0.085 µg/mL,–,50 µg/mL,< 0.023 µg/mL,< 0.023 µg/mL,> 50 µg/mL,–,–
